What was measured:
Assay type in all cases: physicochemical
[1] = Competitive slurry experiments in 2-propanol/1% water; settings: 2-propanol/1% water, room temperature, 15 hours, PXRD
Method: Competitive slurry experiments were performed between Form 1 and Form 2 (Entry 1), and between Form 6 and Form 2 (Entry 2), in 2-propanol/1% water. Entry 1: […] The solids were collected with vacuum filtration and analyzed with PXRD. PXRD data was consistent with PF-07220060 monohydrate (Form 2). Entry 2: […] The solids were collected with vacuum filtration and analyzed with PXRD. PXRD data was consistent with PF-07220060 monohydrate (Form 2).

[2] = Slurry conversion in 10% MeCN/water, form by PXRD; settings: room temperature
Method: Crystalline PF-07220060 hydrate (Form 1) (25 mg) prepared as described in Example 1, Vial A was suspended in 10% MeCN/water (0.5 mL) and slurried at room temperature for […].

[3] = Thermal stability by thermogravimetric analysis (TGA)
Method: Thermogravimetric analysis was conducted using a Discovery TGA (TA instruments) thermogravimetric analyzer. Samples of approximately 10 mg were weighed into aluminum pans and heated from ambient ([…]) to 250° C. at 10° C./minute heating rate under nitrogen purge (10 mL/min for both sample chamber and balance).
(§1) Thermal stability data were obtained through thermogravimetric analysis (TGA) according to General Method 4, and Differential Scanning Calorimetry (DSC) scan according to General Method 5A.

[4] = Moisture sorption (hygroscopicity), water sorption and desorption; settings: for form change at the completion of the moisture sorption run by PXRD: 25° C.; for Weight Gain (%) at 25° C., 60% RH: comparative summary of Forms 1, 2, 6 and 8
Method: Water sorption and desorption studies were conducted on an automated vapor sorption analyzer (TA instruments Q5000 SA). The microbalance was calibrated using a 100 mg standard weight. The relative humidity (RH) sensor was calibrated at 5.0, 11.3, 32.8, 52.8, 75.3, and 84.3% RH (25° C.) using saturated salt solutions. Approximately 10-20 mg of the powder sample was placed in the quartz sample holder and dried at 3% RH at 60° C. The attainment of equilibrium was assumed when the weight change of the sample was <0.001 wt % in 5 min or by a maximum equilibration time of 300 minutes. […] Again, the attainment of equilibrium was assumed when the weight change of the sample was <0.001 wt % in 5 min or by a maximum equilibration time of 300 minutes. The weight gain at 60% RH is based on the weight after the initial drying step.
Water sorption and desorption studies of PF-07220060 monohydrate (Form 2), prepared as described in Example 2, were conducted according to General Method 6.
Water sorption and desorption studies of PF-07220060 hydrate (Form 1), prepared as described in Example 5B, were conducted according to General Method 6.
Comparative hygroscopicity experiments were performed using moisture sorption analysis according to General Method 6. PF-07220060 Forms 1, 2, 6, and 8 were evaluated using moisture sorption at 25° C., 60% RH. A form change at the completion of the run was not detected for any of the forms by PXRD.

[5] = Thermal stability by Differential Scanning Calorimetry (DSC)
Method: Modulated Differential scanning calorimetry (DSC) measurements were performed with Discovery DSC (TA instruments) equipped with a refrigerated cooling accessory. All the experiments were performed in standard/Tzero aluminum pans. The cell constant was determined using indium and temperature calibration was performed using indium and tin as standards. All the measurements were done under continuous dry nitrogen purge (50 mL/min). Approximately 1-5 mg of solid sample was weighed into a Tzero aluminum pan, sealed non-hermetically and heated from −40° C. to 220° C. at 10° C./min heating rate. The experimental data were analyzed using commercially available software (TA Universal Analysis 2000/Trios software, TA Instruments).
as §1

CC(C)n1c(C(C)(C)O)nc2c(F)cc(-c3nc(N[C@@H]4CCOC[C@H]4O)ncc3Cl)cc21 [Form 1, 1,5-anhydro-3-({5-chloro-4-[4-fluoro-2-(2-hydroxypropan-2-yl)-1-(propan-2-yl)-1H-benzimidazol-6-yl]pyrimidin-2-yl}amino)-2,3-dideoxy-D-threo-pentitol]
Out-going form [1]: converted to Form 2
form after slurry by PXRD [2]: converted to PF-07220060 monohydrate (Form 2)
Thermal stability via TGA (° C.) ([3]; listed as Form 1 (hydrate)): 20 °C
form change at the completion of the moisture sorption run by PXRD ([4]; 60% RH): not detected
Weight gain (%) ([4]; 25 °C, RH 0%, listed as PF-07220060 hydrate (Form 1)): 0.05%
Weight gain (%) ([4]; 25 °C, RH 10%, desorption, listed as PF-07220060 hydrate (Form 1)): 1.26%
Weight gain (%) ([4]; 25 °C, RH 10%, sorption, listed as PF-07220060 hydrate (Form 1)): 1.23%
Weight gain (%) ([4]; 25 °C, RH 20%, desorption, listed as PF-07220060 hydrate (Form 1)): 2.38%
Weight gain (%) ([4]; 25 °C, RH 20%, sorption, listed as PF-07220060 hydrate (Form 1)): 2.34%
Weight gain (%) ([4]; 25 °C, RH 30%, desorption, listed as PF-07220060 hydrate (Form 1)): 2.87%
Weight gain (%) ([4]; 25 °C, RH 30%, sorption, listed as PF-07220060 hydrate (Form 1)): 2.84%
Weight gain (%) ([4]; 25 °C, RH 40%, desorption, listed as PF-07220060 hydrate (Form 1)): 3.13%
Weight gain (%) ([4]; 25 °C, RH 40%, sorption, listed as PF-07220060 hydrate (Form 1)): 3.10%
Weight gain (%) ([4]; 25 °C, RH 50%, desorption, listed as PF-07220060 hydrate (Form 1)): 3.30%
Weight gain (%) ([4]; 25 °C, RH 50%, sorption, listed as PF-07220060 hydrate (Form 1)): 3.26%
Weight gain (%) ([4]; 25 °C, RH 60%, desorption, listed as PF-07220060 hydrate (Form 1)): 3.41%
Weight gain (%) ([4]; 25 °C, RH 60%, sorption, listed as PF-07220060 hydrate (Form 1)): 3.37%
Weight gain (%) ([4]; 25 °C, RH 70%, desorption, listed as PF-07220060 hydrate (Form 1)): 3.49%
Weight gain (%) ([4]; 25 °C, RH 70%, sorption, listed as PF-07220060 hydrate (Form 1)): 3.46%
Weight gain (%) ([4]; 25 °C, RH 80%, desorption, listed as PF-07220060 hydrate (Form 1)): 3.55%
Weight gain (%) ([4]; 25 °C, RH 80%, sorption, listed as PF-07220060 hydrate (Form 1)): 3.53%
Weight gain (%) ([4]; 25 °C, RH 90%, listed as PF-07220060 hydrate (Form 1)): 3.61%
Weight gain (%) ([4]; 60 °C, RH 0% (initial drying step)): 0.00%
Weight Gain (%) at 25° C., 60% RH [4]: ~3%
Thermal stability via DSC (° C.) ([5]; listed as Form 1 (hydrate)): 0 °C

CC(C)n1c(C(C)(C)O)nc2c(F)cc(-c3nc(N[C@@H]4CCOC[C@H]4O)ncc3Cl)cc21 [Form 6, 1,5-anhydro-3-({5-chloro-4-[4-fluoro-2-(2-hydroxypropan-2-yl)-1-(propan-2-yl)-1H-benzimidazol-6-yl]pyrimidin-2-yl}amino)-2,3-dideoxy-D-threo-pentitol]
Out-going form [1]: converted to Form 2
Thermal stability via TGA (° C.) ([3]; listed as Form 6 (anhydrous)): 195 °C
form change at the completion of the moisture sorption run by PXRD ([4]; 60% RH): not detected
Weight Gain (%) at 25° C., 60% RH [4]: <1%
hygroscopicity relative to Form 8 and Form 1 ([4]; moisture sorption at 25° C., 60% RH): reduced hygroscopicity
thermal stability relative to Form 1 and Form 8 ([5]; TGA and DSC): improved thermal stability
Thermal stability via DSC (° C.) ([5]; listed as Form 6 (anhydrous)): 195 °C

CC(C)n1c(C(C)(C)O)nc2c(F)cc(-c3nc(N[C@@H]4CCOC[C@H]4O)ncc3Cl)cc21 [Form 8, 1,5-anhydro-3-({5-chloro-4-[4-fluoro-2-(2-hydroxypropan-2-yl)-1-(propan-2-yl)-1H-benzimidazol-6-yl]pyrimidin-2-yl}amino)-2,3-dideoxy-D-threo-pentitol]
Thermal stability via TGA (° C.) ([3]; listed as Form 8 (amorphous)): 20 °C
form change at the completion of the moisture sorption run by PXRD ([4]; 60% RH): not detected
Weight Gain (%) at 25° C., 60% RH [4]: ~2%
Thermal stability via DSC (° C.) ([5]; listed as Form 8 (amorphous)): −10 °C

— patent US12570641B2, “Solid forms of a CDK4 inhibitor” (Pfizer Inc., priority 2020, dated 2026)
